Experimental data published in patent US20160152831A1, “YELLOW COLORANT FOR HAIR DYEING, COMPOSITION FOR HAIR DYEING, AND HAIR DYEING METHOD” (HODOGAYA CHEMICAL CO., LTD., priority 2013, published 2016).

What was measured:
[1] = Light-fastness test of dyed hair (xenon fade meter); type: physicochemical, human; settings: 330 W/m^2, 20 hours; for Color Difference (ΔE*): before vs after test; for Residual Ratio %: dyeing density after test to before test
Method: A composition for hair dyeing having a pH of 6 was prepared according to the compounding formation as shown in Table 6 by using Yellow 29 as the dye. By using the thus-prepared composition for hair dyeing, a test sample was prepared according to the same method as in Example 1. The resultant test sample was exposed to white light at an irradiation dose of 330 W/m^2 for 20 hours, by using a xenon long-life fade meter light-fastness tester Suga Test Instrument, FAL-25AX-HC-BEC Model), and the dyeing density (K/Sd) and the color values (L*, a*, b*) before and after the test, and the color difference (ΔE*) were determined. The light-fastness test was carried out under the condition where the temperature of the test sample could be from 60 to 66° C.

[2] = Shampooing-fastness test of dyed hair; type: physicochemical, human; settings: for Color Difference (ΔE*): before vs after test; for Color Difference (ΔE*) / Residual Ratio %: 5 cycles; for Residual Ratio %: dyeing density after test to before test
Method: The test sample with Yellow 29 prepared in Example 1 was tested according to the shampooing-fastness test mentioned below, and the dyeing density (K/Sd) and color difference (ΔE*) before and after the test were determined. In the Table, the residual ratio (%) means the ratio of the dyeing density after the test to the dyeing density before the test.
The test sample was subjected to a cycle operation of (1) shampooing followed by (2) treatment as mentioned below, repeatedly five times in all, and then spontaneously dried at room temperature (about 20° C.).
Shampoo liquid: aqueous 5% sodium laurylsulfate solution
Bath ratio: 1/10 (mass of shampooing liquid relative to 1 g mass of dyed hair)
Processing temperature: 45° C.
Processing time: 20 minutes
Post-treatment: rinsing with water
Treatment liquid: aqueous 5% trimethylstearylammonium chloride solution
Bath ratio: 1/10 (mass of treatment liquid relative to 1 g mass of dyed hair)

Compound | light-fastness [1] | Color Difference (ΔE*) [1] | Residual Ratio % [1] | Color Difference (ΔE*) [2] | shampooing-fastness ([2]; compared with Yellow 87) | Residual Ratio % [2]
Cc1ccc(N(C)/N=C/C2=[N+](C)c3ccccc3C2(C)C)cc1 [Yellow 29, C. I. Basic Yellow 29] | excellent | 2.8 | 89% | 6.6 | extremely excellent | 82%
Cc1nn(-c2ccccc2)c(O)c1/N=N/c1cccc([N+](C)(C)C)c1.[Cl-] [Yellow 57, C.I. Basic Yellow 57, reference compound] | low | 10.2 | 98% |  |  | 
CN(/N=C\c1cc[n+](C)cc1)c1ccccc1 [Yellow 87, C.I. Basic Yellow 87, reference compound] |  |  |  | 21.8 |  | 33%
